Measurements: patent publication US20210363254A1, “PHARMACEUTICAL COMBINATIONS” (Novartis AG, priority 2018, published 2021)
Like-named read-outs stand apart in the source and are kept apart here.

COc1ncc(-c2nc3c(n2C(C)C)[C@H](c2ccc(Cl)cc2)N(c2cc(Cl)cn(C)c2=O)C3=O)c(OC)n1 [HDM201, (S)-5-(5-Chloro-1-methyl-2-oxo-1,2-dihydro-pyridin-3-yl)-6-(4-chloro-phenyl)-2-(2,4-dimethoxy-pyrimidin-5-yl)-1-isopropyl-5,6-dihydro-1H-pyrrolo[3,4-d]imidazol-4-one]
0 n (%): Hyperkalaemia, Grade 3/4 (1B 200 mg, N=3) | Hypocalcaemia, All Grades (1B 200 mg, N=3) | Hypocalcaemia, Grade 3/4 (1B 200 mg, N=3) | Influenza Like Illness, All Grades (1B 200 mg, N=3) | Influenza Like Illness, Grade 3/4 (1B 200 mg, N=3) | Lethargy, All Grades (1B 200 mg, N=3) | Lethargy, Grade 3/4 (1B 200 mg, N=3) | Leukopenia, All Grades (1B 200 mg, N=3) | Leukopenia, Grade 3/4 (1B 200 mg, N=3) | Lymphopenia, All Grades (1B 200 mg, N=3) | Lymphopenia, Grade 3/4 (1B 200 mg, N=3) | Monocytosis, All Grades (1B 200 mg, N=3) | Monocytosis, Grade 3/4 (1B 200 mg, N=3) | Musculoskeletal Pain, All Grades (1B 200 mg, N=3) | Musculoskeletal Pain, Grade 3/4 (1B 200 mg, N=3) | Myalgia, All Grades (1B 200 mg, N=3) | Myalgia, Grade 3/4 (1B 200 mg, N=3) | Nausea, Grade 3/4 (1B 200 mg, N=3) | Neuralgia, All Grades (1B 200 mg, N=3) | Neuralgia, Grade 3/4 (1B 200 mg, N=3) | Neutropenia, All Grades (1B 200 mg, N=3) | Neutropenia, Grade 3/4 (1B 200 mg, N=3) | Neutrophil Count Decreased, All Grades (1B 200 mg, N=3) | Neutrophil Count Decreased, Grade 3/4 (1B 200 mg, N=3) | Oedema, Grade 3/4 (1B 200 mg, N=3) | Oral Candidiasis, All Grades (1B 200 mg, N=3) | Oral Candidiasis, Grade 3/4 (1B 200 mg, N=3) | Platelet Count Decreased, All Grades (1B 200 mg, N=3) | Platelet Count Decreased, Grade 3/4 (1B 200 mg, N=3) | Pruritus, All Grades (1B 200 mg, N=3) | Pruritus, Grade 3/4 (1B 200 mg, N=3) | Thrombocytopenia, All Grades (1B 200 mg, N=3) | Thrombocytopenia, Grade 3/4 (1B 200 mg, N=3) | Vomiting, All Grades (1B 200 mg, N=3) | Vomiting, Grade 3/4 (1B 200 mg, N=3) | Weight Decreased, All Grades (1B 200 mg, N=3) | Weight Decreased, Grade 3/4 (1B 200 mg, N=3) | White Blood Cell Count Decreased, All Grades (1B 200 mg, N=3) | White Blood Cell Count Decreased, Grade 3/4 (1B 200 mg, N=3) | Abdominal Pain, Grade 3/4 (1B all subjects, N=20) | Alanine Aminotransferase Increased, Grade 3/4 (1B all subjects, N=20) | Alopecia, Grade 3/4 (1B all subjects, N=20) | Amylase Increased, Grade 3/4 (1B all subjects, N=20) | Anaemia, Grade 3/4 (1B all subjects, N=20) | Asthenia, Grade 3/4 (1B all subjects, N=20) | Blood Bilirubin Increased, Grade 3/4 (1B all subjects, N=20) | Blood Creatinine Increased, Grade 3/4 (1B all subjects, N=20) | Decreased Appetite, Grade 3/4 (1B all subjects, N=20) | Dehydration, Grade 3/4 (1B all subjects, N=20) | Diarrhoea, Grade 3/4 (1B all subjects, N=20) | Dry Skin, Grade 3/4 (1B all subjects, N=20) | Dysgeusia, Grade 3/4 (1B all subjects, N=20) | Eye Pain, Grade 3/4 (1B all subjects, N=20) | Folliculitis, Grade 3/4 (1B all subjects, N=20) | Gamma-Glutamyltransferase Increased, Grade 3/4 (1B all subjects, N=20) | Headache, Grade 3/4 (1B all subjects, N=20) | Hyperkalaemia, Grade 3/4 (1B all subjects, N=20) | Hypocalcaemia, Grade 3/4 (1B all subjects, N=20) | Influenza Like Illness, Grade 3/4 (1B all subjects, N=20) | Lethargy, Grade 3/4 (1B all subjects, N=20) | Monocytosis, Grade 3/4 (1B all subjects, N=20) | Musculoskeletal Pain, Grade 3/4 (1B all subjects, N=20) | Myalgia, Grade 3/4 (1B all subjects, N=20)
3 (100) n (%): Total, All Grades (1B 200 mg, N=3)
1 n (%): Alanine Aminotransferase Increased, All Grades (1B all subjects, N=20) | Alopecia, All Grades (1B all subjects, N=20) | Amylase Increased, All Grades (1B all subjects, N=20) | Blood Bilirubin Increased, All Grades (1B all subjects, N=20) | Blood Creatine Phosphokinase Increased, Grade 3/4 (1B all subjects, N=20) | Dehydration, All Grades (1B all subjects, N=20) | Dry Skin, All Grades (1B all subjects, N=20) | Dysgeusia, All Grades (1B all subjects, N=20) | Eye Pain, All Grades (1B all subjects, N=20) | Fatigue, Grade 3/4 (1B all subjects, N=20) | Folliculitis, All Grades (1B all subjects, N=20) | Gamma-Glutamyltransferase Increased, All Grades (1B all subjects, N=20) | Headache, All Grades (1B all subjects, N=20) | Hyperkalaemia, All Grades (1B all subjects, N=20) | Hypocalcaemia, All Grades (1B all subjects, N=20) | Influenza Like Illness, All Grades (1B all subjects, N=20) | Lethargy, All Grades (1B all subjects, N=20) | Leukopenia, Grade 3/4 (1B all subjects, N=20) | Lymphopenia, Grade 3/4 (1B all subjects, N=20) | Monocytosis, All Grades (1B all subjects, N=20) | Musculoskeletal Pain, All Grades (1B all subjects, N=20) | Myalgia, All Grades (1B all subjects, N=20)
4 n (%): Decreased Appetite, All Grades (1B all subjects, N=20) | Fatigue, All Grades (1B all subjects, N=20) | Lipase Increased, All Grades (1B all subjects, N=20)
3 n (%): Abdominal Pain, All Grades (1B all subjects, N=20) | Lipase Increased, Grade 3/4 (1B all subjects, N=20)
2 n (%): Asthenia, All Grades (1B all subjects, N=20) | Blood Creatine Phosphokinase Increased, All Grades (1B all subjects, N=20) | Blood Creatinine Increased, All Grades (1B all subjects, N=20) | Leukopenia, All Grades (1B all subjects, N=20) | Lymphopenia, All Grades (1B all subjects, N=20)
5 n (%): Anaemia, All Grades (1B all subjects, N=20) | Diarrhoea, All Grades (1B all subjects, N=20)
12 n (%): Nausea, All Grades (1B all subjects, N=20)
1 (33.3) n (%): Lipase Increased, All Grades (1B 200 mg, N=3) | Lipase Increased, Grade 3/4 (1B 200 mg, N=3) | Nausea, All Grades (1B 200 mg, N=3) | Oedema, All Grades (1B 200 mg, N=3) | Total, Grade 3/4 (1B 200 mg, N=3)
